The structures appear in SMILES notation.

The conditions of the first data set: 22.0 °C.
In turn, `C1=Cc2ccccc2C1` came in with a log10 OH rate constant (cm³/molecule/s) of -10.3.

Regarding `FC(Cl)C(F)(F)C(F)(F)Cl` (centres undefined), the log10 OH rate constant (cm³/molecule/s) is -14.1. Take `CCCCSCCCC`: the log10 OH rate constant (cm³/molecule/s) was -10.4.

The data set is the same for the next values; noted with them: 23.0 °C.
For `C[C@@H]1CC[C@@H]2C[C@H]1C2(C)C`, the log10 OH rate constant (cm³/molecule/s) is -10.9. `FC(F)(Br)C(F)(F)Br` gave a log10 OH rate constant (cm³/molecule/s) of less than -15.9. The same measure, in the same setting: as for `CC1(C)C2CC3C(C2)C31C`, the figure is -11.5.

Staying with this data set, now noted: 24.0 °C.
`FC(F)(Br)Br`: the log10 OH rate constant (cm³/molecule/s) is less than -15.2.

The data set is the same for the next values; noted with them: 25.0 °C.
`CCCCCCCCCCCC` gave a log10 OH rate constant (cm³/molecule/s) of -10.8. On the same count and under the same terms, the figure for `FC(Br)(Br)Br` is less than -15; for `CON=O` it is -12.7; for `CCCCCCCCO` it is -10.8.

As to `C`, the log10 OH rate constant (cm³/molecule/s) is -14.2.

`FC(F)(F)C(F)(F)C(Cl)Cl` showed a log10 OH rate constant (cm³/molecule/s) of -13.6. Still for that read-out and setting: as for `CSC`, the figure is -11.3; as for `C=CC[N+](=O)[O-]`, -10.9. Same read-out and setting: the figure for `C1C2C3C2C2C1C32` (centres undefined) is -11.7; for `O=[N+]([O-])C1=CCCCC1` it is -10.4; for `CCOCC` it is -10.9.

`CCCl` had a log10 OH rate constant (cm³/molecule/s) of -12.4.

On to `COS(=O)(=O)OC`, for which the log10 OH rate constant (cm³/molecule/s) was less than -12.3.

With `CCCCON=O`, the log10 OH rate constant (cm³/molecule/s) is -11.6.

As for `CC(C)(C)OO`, the log10 OH rate constant (cm³/molecule/s) was -11.5. On the same count and under the same terms, the figure for `CCCCO[N+](=O)[O-]` is -11.8; for `C=C[N+](=O)[O-]` it is -11.9. The same measure, in the same setting: as for `FC(F)(F)Br`, the figure is less than -16; as for `CC[N+](=O)[O-]`, -12.8. Still for that read-out and setting: the figure for `CC#N` is -13.6.

`FC(Cl)(Cl)Cl`: the log10 OH rate constant (cm³/molecule/s) was less than -15.3. For `CCON=O`, the log10 OH rate constant (cm³/molecule/s) was -12.2.
